This is an account of results in US9550796B2, “Pyrrolopyrrolone derivatives and their use as BET inhibitors” (NOVARTIS AG, priority 2013, dated 2017).

A word on the GI50: it is the concentration giving 50% growth inhibition. The low end stands for greater sensitivity of the cells, the high end for lower sensitivity of the cells. Usually IC50 stands for the point on the concentration scale where inhibition reaches its midpoint.

The structures appear in SMILES notation.

The subject of assay [1] is MV-4-11. Put plainly: Cell growth inhibition assay (CellTiter-Glo), MV-4-11. In kind it is cell-based, human. The conditions noted are these: MV-4-11 cells, 4 days; for GI50: Homo sapiens, MV4-11, 96 h, half-maximal growth inhibition; for MV-4-11 TGI: total growth inhibition. Put shortly:
(§1)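 Seed cells in their own media; add compound as 3-fold dilutions from 10 μM (0.1% DMSO final). Incubate 4 days at 37 °C, 5% CO2, then add CTG and read luminescence. Subtract no-cell background, correct to a day 0 plate, and fit IC50 and TGI.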
A general note: ATP-based viability assays read luminescence as a measure of living cells.

The target in assay [2] is BRD4 (Homo sapiens (Human), UniProt O60885). Kind of assay: TR-FRET in-vitro binding assay for BRD4. Particulars: 45 nM His-Brd4(44-477), acetyl-histone H4 (AcK 5, 8, 12, 16) peptide. Put shortly:
(§2)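 Incubation at 30° C lasted 35 min, followed by TR-FRET measurement; each compound was tested as 8 single-point concentrations.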
For orientation: In TR-FRET formats the signal depends on donor and acceptor labels being close together.

Assay [3] deals with THP-1. Kind of assay: Cell growth inhibition assay (CellTiter-Glo), THP-1. Format: cell-based, human. Particulars: THP-1 cells, 4 days; for GI50: Homo sapiens, 96 h, half-maximal growth inhibition; for THP-1 TGI: total growth inhibition. Put shortly:
as §1

Assay [4] addresses BRD3 (Homo sapiens (Human), UniProt Q15059). Put plainly: TR-FRET in-vitro binding assay for BRD3. The conditions noted are these: 45 nM His-Brd3(20-477), acetyl-histone H4 (AcK 5, 8, 12, 16) peptide. Put shortly: as §2
The target of assay [5] is CREBBP (Homo sapiens (Human), UniProt Q92793). Kind of assay: AlphaScreen in-vitro binding assay for CREBBP. The conditions noted are these: 324 nM His-CREBBP (1081-1197), acetyl-histone H4 (AcK 5, 8, 12) peptide. The method in brief:
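IC50 values were derived by non-linear regression of percent inhibition across 8 compound concentrations. Protein was His-tagged CREBBP bromodomain (1081-1197), peptide acetyl-histone H4 (AcK 5, 8, 12), in HEPES pH 7.5 buffer. Read-out was AlphaScreen with Ni-chelate acceptor and streptavidin donor beads, 35 min at 30° C then 60 min at RT.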
In general terms: In Alpha technology, singlet oxygen from a donor bead excites a nearby acceptor bead.

Assay [6] deals with BRD2 (Homo sapiens (Human), UniProt P25440). Kind of assay: TR-FRET in-vitro binding assay for BRD2. Particulars: 45 nM His-Brd2(60-472), acetyl-histone H4 (AcK 5, 8, 12, 16) peptide. The method in brief:
as §2

Assay [7] deals with K-562. Put plainly: Cell growth inhibition assay (CellTiter-Glo), K-562. Format: cell-based, human. Particulars: K-562 cells, 4 days; for GI50: Homo sapiens, K562, 96 h, half-maximal growth inhibition; for K-562 TGI: total growth inhibition. Put shortly: as §1

Sequence of BRD3 (Q15059 20-477): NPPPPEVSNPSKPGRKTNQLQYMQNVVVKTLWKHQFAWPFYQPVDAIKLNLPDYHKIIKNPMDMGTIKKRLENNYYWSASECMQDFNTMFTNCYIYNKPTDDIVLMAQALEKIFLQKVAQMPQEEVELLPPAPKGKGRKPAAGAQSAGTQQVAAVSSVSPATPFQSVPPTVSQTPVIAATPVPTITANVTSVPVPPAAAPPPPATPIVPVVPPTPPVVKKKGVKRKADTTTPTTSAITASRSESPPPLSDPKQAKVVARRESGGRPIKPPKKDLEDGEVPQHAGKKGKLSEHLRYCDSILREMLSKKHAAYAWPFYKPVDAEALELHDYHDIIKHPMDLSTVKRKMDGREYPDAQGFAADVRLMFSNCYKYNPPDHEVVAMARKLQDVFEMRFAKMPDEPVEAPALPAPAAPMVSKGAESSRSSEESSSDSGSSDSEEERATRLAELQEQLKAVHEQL
Sequence of CREBBP (Q92793 1081-1197): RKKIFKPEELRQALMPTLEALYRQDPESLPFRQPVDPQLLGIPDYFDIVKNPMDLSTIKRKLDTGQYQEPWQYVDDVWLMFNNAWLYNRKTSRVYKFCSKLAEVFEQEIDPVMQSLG
Sequence of BRD2 (P25440 60-472): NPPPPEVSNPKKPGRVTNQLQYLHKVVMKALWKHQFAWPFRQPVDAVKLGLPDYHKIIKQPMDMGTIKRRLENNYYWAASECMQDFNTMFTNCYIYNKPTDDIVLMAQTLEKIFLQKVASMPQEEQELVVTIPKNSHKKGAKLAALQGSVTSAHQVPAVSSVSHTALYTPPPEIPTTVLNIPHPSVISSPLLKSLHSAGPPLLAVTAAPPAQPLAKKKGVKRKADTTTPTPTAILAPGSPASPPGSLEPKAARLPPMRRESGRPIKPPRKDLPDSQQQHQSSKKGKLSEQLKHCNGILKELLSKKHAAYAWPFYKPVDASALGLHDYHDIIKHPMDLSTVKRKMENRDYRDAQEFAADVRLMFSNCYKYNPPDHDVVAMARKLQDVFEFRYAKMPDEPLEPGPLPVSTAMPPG

For `Cc1cc(N2C(=O)c3cc(-c4ccc(=O)n(C)c4)n(C)c3C2c2ccc(Cl)cc2)cn(C)c1=O` (centres unmarked) [Example 46, 6-(4-chlorophenyl)-5-(1,5-dimethyl-6-oxo-1,6-dihydropyridin-3-yl)-1-methyl-2-(1-methyl-6-oxo-1,6-dihydropyridin-3-yl)-5,6-dihydropyrrolo[3,4-b]pyrrol-4(1H)-one], the GI50 in assay [1] is 0.165 µM; in assay [3], 0.525 µM; in assay [7], 1.6 µM. The “MV-4-11 TGI” value in assay [1] was determined as 0.292 µM. Besides, the 50% inhibitory concentration (IC50) worked out at 0.014 µM in assay [2], 0.016 µM in assay [4], 0.28 µM in assay [5] and 0.019 µM in assay [6]. For the same molecule, the “THP-1 TGI” value in assay [3] came to 1.07 µM. In addition, in assay [7], the “K-562 TGI” value is more than 10 µM.

On to `Cc1cn(C)c2c1C(=O)N(c1cc(C)c3nnn(C)c3c1)C2c1ccc(Cl)cc1` (centres unmarked) [Example 28, 6-(4-chlorophenyl)-5-(1,4-dimethyl-1H-benzo[d][1,2,3]triazol-6-yl)-1,3-dimethyl-5,6-dihydropyrrolo[3,4-b]pyrrol-4(1H)-one], for which the GI50 turned out to be 0.0128 µM in assay [1], 0.0192 µM in assay [3] and 0.0556 µM in assay [7]. For the same molecule, the “MV-4-11 TGI” value in assay [1] was found to be 0.02635 µM. Further, the IC50 in assay [2] turned out to be 0.016 µM; in assay [4], 0.021 µM; in assay [5], 1.9 µM; in assay [6] it was 0.02 µM. The “THP-1 TGI” value in assay [3] stood at 0.03815 µM. Also, the “K-562 TGI” value in assay [7] was more than 10 µM.

For the molecule `CC(=O)N1CC(n2cc(C)c3c2C(c2ccc(Cl)cc2)N(c2cc(C)c4nnc(C)n4c2)C3=O)C1` (centres unmarked) [Example 7, 1-(1-acetylazetidin-3-yl)-6-(4-chlorophenyl)-5-(3,8-dimethyl-[1,2,4]triazolo[4,3-a]pyridin-6-yl)-3-methyl-5,6-dihydropyrrolo[3,4-b]pyrrol-4(1H)-one], the figures for the GI50 in assay [1], in assay [3] and in assay [7] were 0.0502 µM, 0.196 µM and 2.06 µM, respectively. For the same molecule, the “MV-4-11 TGI” value in assay [1] stood at 0.1358 µM. Further, the IC50 in assay [2] was determined as 0.017 µM; in assay [4], 0.016 µM; in assay [5], 7.6 µM; in assay [6], 0.032 µM. Moreover, in assay [3], the “THP-1 TGI” value amounted to 0.4495 µM. In assay [7], the “K-562 TGI” value is more than 10 µM.

As to `Cc1cc(N2C(=O)c3cc(-c4cccnc4O)[nH]c3C2c2ccc(Cl)cc2)cn2c(C)nnc12` (centres unmarked) [Example 26, 6-(4-chlorophenyl)-5-(3,8-dimethyl-[1,2,4]triazolo[4,3-a]pyridin-6-yl)-2-(2-hydroxypyridin-3-yl)-5,6-dihydropyrrolo[3,4-b]pyrrol-4(1H)-one], the GI50 was determined as 0.0699 µM in assay [1], 0.136 µM in assay [3] and 0.839 µM in assay [7]. The “MV-4-11 TGI” value in assay [1] turned out to be 0.1185 µM. For the same molecule, the IC50 was 0.06 µM in assay [2], 0.052 µM in assay [4], 4 µM in assay [5] and 0.078 µM in assay [6]. In assay [3], the “THP-1 TGI” value came out at 0.34 µM. Moreover, the “K-562 TGI” value in assay [7] was more than 10 µM.

For the molecule `CC(=O)N1CC(n2cc(C3CC3)c3c2C(c2ccc(Cl)cc2)N(c2cc(C)c4nnc(C)n4c2)C3=O)C1` (centres unmarked) [Example 17, 1-(1-acetylazetidin-3-yl)-6-(4-chlorophenyl)-3-cyclopropyl-5-(3,8-dimethyl-[1,2,4]triazolo[4,3-a]pyridin-6-yl)-5,6-dihydropyrrolo[3,4-b]pyrrol-4(1H)-one], the GI50 is 0.0111 µM in assay [1], 0.0433 µM in assay [3] and 0.23 µM in assay [7]. In assay [1], the “MV-4-11 TGI” value was found to be 0.03485 µM. Besides, the IC50 in assay [2] is less than 0.011 µM; in assay [4], less than 0.011 µM; in assay [5], 4.1 µM; in assay [6], less than 0.011 µM. In addition, in assay [3], the “THP-1 TGI” value came out at 0.168 µM. In assay [7], the “K-562 TGI” value was more than 10 µM.

In the case of `Cc1cc(N2C(=O)c3c(C(=O)N(C)C)cn(C)c3C2c2ccc(Cl)cc2)cn2c(C)nnc12` (centres unmarked) [Example 100, 6-(4-chlorophenyl)-5-(3,8-dimethyl-[1,2,4]triazolo[4,3-a]pyridin-6-yl)-N,N,1-trimethyl-4-oxo-1,4,5,6-tetrahydropyrrolo[3,4-b]pyrrole-3-carboxamide], the GI50 in assay [1] stood at 0.129 µM; in assay [3] it was 0.517 µM; in assay [7] it was 2.04 µM. Further, the “MV-4-11 TGI” value in assay [1] came out at 0.3685 µM. Further, the IC50 is 0.03 µM in assay [2], 0.047 µM in assay [4], more than 37 µM in assay [5] and 0.04 µM in assay [6]. For the same molecule, the “THP-1 TGI” value in assay [3] amounted to 2.135 µM. In addition, the “K-562 TGI” value in assay [7] was more than 10 µM.

With `COc1nccc(-c2cc3c(n2C)C(c2ccc(Cl)cc2)N(c2cc(Cl)c(=O)n(C)c2)C3=O)n1` (centres unmarked) [Example 39, 5-(5-chloro-1-methyl-6-oxo-1,6-dihydropyridin-3-yl)-6-(4-chlorophenyl)-2-(2-methoxypyrimidin-4-yl)-1-methyl-5,6-dihydropyrrolo[3,4-b]pyrrol-4(1H)-one], the GI50 in assay [1] turned out to be 0.0786 µM; in assay [3], 0.128 µM; in assay [7], 0.55 µM. In addition, the “MV-4-11 TGI” value in assay [1] worked out at 0.105 µM. Also, the IC50 in assay [2] was 0.305 µM; in assay [4], 0.22 µM; in assay [5], 1.2 µM; in assay [6], 0.28 µM. In addition, the “THP-1 TGI” value in assay [3] was 0.238 µM. Further, the “K-562 TGI” value in assay [7] was more than 10 µM.

With `COc1ccc(C2c3c(ccn3C)C(=O)N2c2cc(C)c(=O)n(C)c2)cc1` (centres unmarked) [Example 84, 5-(1,5-dimethyl-6-oxo-1,6-dihydropyridin-3-yl)-6-(4-methoxyphenyl)-1-methyl-5,6-dihydropyrrolo[3,4-b]pyrrol-4(1H)-one], the GI50 in assay [1] was 0.158 µM; in assay [3], 0.167 µM; in assay [7], 0.548 µM. In addition, in assay [1], the “MV-4-11 TGI” value came to 0.3385 µM. The IC50 is 0.23 µM in assay [2], 0.161 µM in assay [4], 4.7 µM in assay [5] and 0.196 µM in assay [6]. Besides, the “THP-1 TGI” value in assay [3] turned out to be 0.4195 µM. Moreover, the “K-562 TGI” value in assay [7] was more than 10 µM.

As to `CNC(=O)n1cc(C)c2c1C(c1ccc(Cl)cc1)N(c1cc(C)c3nnc(C)n3c1)C2=O` (centres unmarked) [Example 9, 6-(4-chlorophenyl)-5-(3,8-dimethyl-[1,2,4]triazolo[4,3-a]pyridin-6-yl)-N,3-dimethyl-4-oxo-5,6-dihydropyrrolo[3,4-b]pyrrole-1(4H)-carboxamide], the results for the GI50 in assay [1], in assay [3] and in assay [7] were 0.013 µM, 0.0171 µM and 0.0787 µM, respectively. Besides, the “MV-4-11 TGI” value in assay [1] stood at 0.02675 µM. The IC50 in assay [2] worked out at 0.024 µM; in assay [4], 0.015 µM; in assay [5] it was 6 µM; in assay [6], 0.028 µM. Besides, in assay [3], the “THP-1 TGI” value stood at 0.0433 µM. In addition, the “K-562 TGI” value in assay [7] is more than 10 µM.

As to `Cn1c(-c2cccn(C)c2=O)cc2c1C(c1ccc(Cl)cc1)N(c1cc(Cl)c(=O)n(C)c1)C2=O` (centres unmarked) [Example 43, 5-(5-chloro-1-methyl-6-oxo-1,6-dihydropyridin-3-yl)-6-(4-chlorophenyl)-1-methyl-2-(1-methyl-2-oxo-1,2-dihydropyridin-3-yl)-5,6-dihydropyrrolo[3,4-b]pyrrol-4(1H)-one], the GI50 amounted to 0.183 µM in assay [1], 0.276 µM in assay [3] and 0.934 µM in assay [7]. In addition, the “MV-4-11 TGI” value in assay [1] came to 0.31 µM. In addition, the IC50 was 0.12 µM in assay [2], 0.077 µM in assay [4], 0.69 µM in assay [5] and 0.09 µM in assay [6]. The “THP-1 TGI” value in assay [3] came out at 0.492 µM. Moreover, the “K-562 TGI” value in assay [7] is more than 10 µM.

For the molecule `Cc1cc(N2C(=O)c3c(C4CC4)cn(C)c3C2c2ccc(Cl)cc2)cn(C)c1=O` (centres unmarked) [Example 37, 6-(4-chlorophenyl)-3-cyclopropyl-5-(1,5-dimethyl-6-oxo-1,6-dihydropyridin-3-yl)-1-methyl-5,6-dihydropyrrolo[3,4-b]pyrrol-4(1H)-one], the results for the GI50 in assay [1], in assay [3] and in assay [7] were 0.0213 µM, 0.0449 µM and 0.18 µM, respectively. For the same molecule, the “MV-4-11 TGI” value in assay [1] came to 0.03855 µM. The half-inhibitory concentration (IC50) is 0.037 µM in assay [2], 0.032 µM in assay [4], 1.9 µM in assay [5] and 0.038 µM in assay [6]. In addition, the “THP-1 TGI” value in assay [3] is 0.09815 µM. In assay [7], the “K-562 TGI” value is more than 10 µM.
